Here are results for ten molecules from patent US10316021B2, “Heteroarylphenoxy benzamide kappa opioid ligands” (Pfizer Inc., priority 2016, dated 2019).

For data set [1], the target named is T1, human kappa opioid receptor (hKOR) (Homo sapiens, UniProt P41145).
T1 construct: expressed in transfected cells; host or cells: CHO cells
As to the kind of experiment: Kappa radioligand binding assay ([3H]diprenorphine, CHO cell membranes). The note with it: for Selectivity hMOR/hKOR: selectivity ratio calculated by dividing the hMOR Ki by the hKOR Ki. As to the method:
(§1) Kappa and Mu Radioligand Binding Assay:
(§2) Binding assays on membranes from CHO cells expressing human kappa or mu opioid receptors were performed according to standard procedures. Frozen cell paste was homogenized in 50 mM Tris HCl buffer (pH 7.4 @ 4 degrees C.) containing 2.0 mM MgCl2 using a Polytron and spun in a centrifuge at 40,000 g for ten minutes. The final pellet was resuspended in assay buffer (50 mM Tris HCl buffer, pH 7.4, containing 1 mM EDTA, 5 mM MgCl2). Incubations were initiated by the addition of membranes to 96-well plates containing test drugs and [^3H]diprenorphine (0.6 nM final concentration for kappa opioid receptor and 0.5 nM final concentration for mu) in a final volume of 250 μl. Non-specific binding was determined by radioligand binding in the presence of a saturating concentration of naltrexone (10 μM). After a one hour incubation period at room temperature, assay samples were rapidly filtered through PEI coated, GF/B fired Unifilter plates (PerkinElmer) and rinsed with ice-cold 50 mM Tris buffer (pH 7.4). Membrane bound [^3H]diprenorphine levels were determined by liquid scintillation counting of the filterplates in Ecolume scintillation fluid. The IC50 value (concentration at which 50% inhibition of specific binding occurs) was calculated using a logistic 4 parameter fit model of the concentration-response data. Ki values were calculated according to the Cheng Prusoff equation, Ki=IC50/(1+(L/Kd)), where L is the concentration of the radioligand used in the experiment and the Kd value is the dissociation constant for the radioligand (determined previously by saturation analysis).

In data set [2] the target is T2, human mu opioid receptor (hMOR) (Homo sapiens, UniProt P35372).
T2 construct: expressed in transfected cells; host or cells: CHO cells
Description: Mu radioligand binding assay ([3H]diprenorphine, CHO cell membranes). Here is the method: as §1
as §2, with “The IC50 value (concentration at which 50% inhibition of specific binding occurs) was calculated using a logistic 4 parameter fit model of the concentration-response data.” left out

Data set [3] is described as follows: In vitro intrinsic clearance in human liver microsomes. Format: in vitro ADME. Here is the method: Determination of In Vitro Intrinsic Clearance in Human Liver Microsomes:
Compounds were prepared as solutions in methanol. The final concentration of methanol in the incubation media was 0.2% (v/v). […] The total incubation volume was 1 mL. The reaction mixture was pre-warmed at 37° C. for 2 min before adding NADPH (1.2 mM). Aliquots (75 μL) of the reaction mixture at 0, 5, 10, 15, and 30 min were added to acetonitrile (200 μL) containing internal standard (terfenadine)(0.05 μg/mL), and the samples were centrifuged at 2500 g for 5 min prior to liquid chromatography/tandem mass spectrometry (LC/MS-MS) analysis of each compound using multiple reaction monitoring (MRM). For control experiments, NADPH was omitted from these incubations.
The microsomal half-life (t1/2) was obtained from a log-linear plot of the substrate depletion vs incubation time and was scaled to hepatic intrinsic clearance (CLint) using the following equation, in which the term t1/2 refers to the in vitro half-life: […]
(In general: Liver microsomes are vesicles of endoplasmic reticulum, rich in cytochrome P450 enzymes.)

Another data set concerns major CYP450 isozymes. As to the kind of experiment: CYP450 DDI cocktail assay (reversible inhibition, all isozymes together). It counts as in vitro ADME, human. The note with it: CYP450 DDI cocktail assay, isozymes inhibited in brackets. As to the method:
Multi-Point Cocktail DDI IC50 Assay Conditions:
Standard marker activity substrates were incubated with pooled human liver microsomes (HL-MIX-102) in the presence of NADPH (1.2 mM) in 100 mM KH2PO4, pH 7.4 containing 3.3 mM MgCl2 at 37° C. The incubation volume was 0.1 mL, utilizing a 384-well plate format. The microsomal protein concentrations (0.1 mg/mL) and P450 concentration (0.035 μM) was used for each probe substrate at the following concentrations [tacrine (1A2) 2 uM; diclofenac (2C9) 5 μM; dextromethorphan (2D6) 5 μM; midazolam (3A4) 2 μM; taxol (2C8) 5 μM; S-mephenytoin (2C19) 40 μM]. Substrate concentrations were near Km values that had been previously determined and incubation times were selected based on determinations of reaction velocity linearity. Each test compound/prototypical inhibitors was tested at a concentration range of 0-30 μM in triplicate, in final vehicle solvent concentrations of 0.9% acetonitrile and 0.1% DMSO. Incubations were initiated with the addition of NADPH. At the end of the incubation period, termination solvent containing internal standard was added, the terminated incubation mixture was centrifuged to precipitate microsomal protein. Samples were directly injected on an HPLC-MS/MS system. A Biomek FX workstation was used for liquid handling and sample incubation.
Reversible CYP450 inhibitory potential for each compound was assessed using the CYP450 DDI cocktail assay, measuring the inhibition of the metabolism of a known probe substrate of each of the major CYP isozymes at 3 μM concentration.

Setting [4] is: Table 19, geometric mean of 2-6 determinations unless otherwise indicated (Example 3: >=7), read-out: hKOR binding assay Ki.
Setting [5] is: Table 20, radioligand binding, read-out: hKOR binding assay Ki.
The mark [6] stands for this setting: Table 19, geometric mean of 2-6 determinations unless otherwise indicated (Example 3: >=7), read-out: hMOR binding assay Ki.
Setting [7] is: Table 20, radioligand binding, read-out: hMOR binding assay Ki.

Entries after “also recorded” stand apart in the source; their conditions may differ. Read-outs that look alike come from different tables or passages of the source.

T1 sequence (P41145 whole entry): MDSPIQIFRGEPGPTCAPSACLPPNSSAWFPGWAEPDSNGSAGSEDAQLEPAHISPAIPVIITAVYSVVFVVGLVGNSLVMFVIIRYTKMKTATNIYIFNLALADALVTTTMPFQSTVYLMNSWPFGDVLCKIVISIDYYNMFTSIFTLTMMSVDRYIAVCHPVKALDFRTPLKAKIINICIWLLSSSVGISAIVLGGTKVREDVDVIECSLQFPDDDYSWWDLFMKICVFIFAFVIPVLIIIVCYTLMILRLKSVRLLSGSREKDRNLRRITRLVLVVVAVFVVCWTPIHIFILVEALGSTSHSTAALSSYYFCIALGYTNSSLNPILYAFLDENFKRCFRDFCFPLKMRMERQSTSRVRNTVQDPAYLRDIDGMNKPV
T2 sequence (P35372 whole entry): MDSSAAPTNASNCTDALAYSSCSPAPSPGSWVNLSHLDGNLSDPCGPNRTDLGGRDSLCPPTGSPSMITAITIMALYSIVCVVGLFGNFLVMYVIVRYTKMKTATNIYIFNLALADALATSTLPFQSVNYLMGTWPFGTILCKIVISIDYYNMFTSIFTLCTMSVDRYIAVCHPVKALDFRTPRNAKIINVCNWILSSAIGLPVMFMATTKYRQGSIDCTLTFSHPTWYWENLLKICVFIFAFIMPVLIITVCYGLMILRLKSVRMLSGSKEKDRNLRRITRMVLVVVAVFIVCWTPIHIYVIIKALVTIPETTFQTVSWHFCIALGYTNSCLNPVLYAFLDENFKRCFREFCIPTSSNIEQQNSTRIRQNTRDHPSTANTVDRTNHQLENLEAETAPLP

As to `COc1cc(C2CCCN2Cc2ccc(Oc3ccc(C(N)=O)cc3)cc2)n(C)n1` (single isomer, unassigned) [Example 46, 4-(4-{[2-(3-methoxy-1-methyl-1H-pyrazol-5-yl)pyrrolidin-1-yl]methyl}phenoxy)benzamide], the Ki stood at 0.657 nM in data set [1] (setting [4]), 0.657 nM in data set [1] (setting [5]), 25 nM in data set [2] (setting [6]) and 25 nM in data set [2] (setting [7]). The “Selectivity hMOR/hKOR” value in data set [1] is 38. In addition, the “hepatic / metabolic clearance in human liver microsomes, in words” value in data set [3] is listed as “higher metabolic clearance”. The CLint scaled at 2 μM in data set [3] (human, pH 7.4, human liver microsomal intrinsic clearance, read-out: HLM CLint) was 105 mL/min/kg. For the same molecule, the “>25% reversible inhibition of CYP activity at 3 μM (CYP)” value with major CYP450 isozymes is reported as “no”.

For the molecule `Cc1nc([C@@H]2CCCN2Cc2ccc(Oc3ccc(C(N)=O)cc3)cc2)ns1` [Example 10, 4-(4-{[(2S)-2-(5-Methyl-1,2,4-thiadiazol-3-yl)pyrrolidin-1-yl]methyl}phenoxy)benzamide], in data set [1], the “KOR potency, in words” value is listed as “good potency”. The “selectivity for KOR over MOR, in words” value in data set [1] is “good potency and selectivity; also recorded: more selective than the phenyl examples, Comparators A and B”. Also, the Ki in data set [1] (setting [4]) turned out to be 4 nM; in data set [1] (setting [5]), 4 nM; in data set [2] (setting [6]), 218 nM; in data set [2] (setting [7]) it was 218 nM. The “Selectivity hMOR/hKOR” value in data set [1] is listed as 54.

On to `Cn1ccc([C@@H]2CCCN2Cc2ccc(Oc3ccc(C(N)=O)cc3F)cc2)n1` [Example 19, 3-fluoro-4-(4-{[(2S)-2-(1-methyl-1H-pyrazol-3-yl)pyrrolidin-1-yl]methyl}phenoxy)benzamide], for which the values for the inhibition constant (Ki) in data set [1] (setting [4]) and in data set [2] (setting [6]) were 0.999 nM and 13.5 nM, respectively.

On to `Cc1cc([C@@H]2CCCN2Cc2ccc(Oc3ccc(C(N)=O)c(O)c3)cc2)n(C)n1` [Example 27, 4-(4-{[(2S)-2-(1,3-dimethyl-1H-pyrazol-5-yl)pyrrolidin-1-yl]methyl}phenoxy)-2-hydroxybenzamide], for which the values for the inhibitory constant (Ki) in data set [1] (setting [4]) and in data set [2] (setting [6]) were 2.07 nM and 121 nM, respectively.

`Cn1ccc([C@@H]2CCCN2Cc2ccc(Oc3ccc(C(N)=O)c(O)c3)cc2)n1` [Example 34, 2-hydroxy-4-(4-{[(2S)-2-(1-methyl-1H-pyrazol-3-yl)pyrrolidin-1-yl]methyl}phenoxy) benzamide]: the Ki was 0.508 nM in data set [1] (setting [4]) and 3.98 nM in data set [2] (setting [6]).

On to `Cc1cc(C2CCCN2Cc2ccc(Oc3ccc(C(N)=O)cc3F)cc2)no1` (centres unmarked) [Example 40], for which, in data set [1], the “KOR potency, in words” value is given as “low KOR potency”. For the same molecule, the inhibition constant Ki came to 139 nM in data set [1] (setting [4]), 139 nM in data set [1] (setting [5]), 299 nM in data set [2] (setting [6]) and 299 nM in data set [2] (setting [7]). Besides, the “Selectivity hMOR/hKOR” value in data set [1] was 2.2.

As to `Cc1cc(C2CCCN2Cc2ccc(Oc3ccc(C(N)=O)cc3F)cc2)on1` (centres unmarked) [Example 42], in data set [1], the “KOR potency, in words” value is reported as “low KOR potency”. For the same molecule, the inhibition constant (Ki) was determined as 54.7 nM in data set [1] (setting [4]), 54.7 nM in data set [1] (setting [5]), 318 nM in data set [2] (setting [6]) and 318 nM in data set [2] (setting [7]). The “Selectivity hMOR/hKOR” value in data set [1] was 5.8.

In the case of `Cc1cnn(C)c1C1CCCN1Cc1ccc(Oc2ccc(C(N)=O)cc2F)cc1` (centres unmarked) [Example 43], in data set [1], the “selectivity for KOR over MOR, in words” value is recorded as “unacceptably lower levels of selectivity (MOR/KOR)”. Further, the inhibition constant Ki is 16.8 nM in data set [1] (setting [4]), 16.8 nM in data set [1] (setting [5]), 56.2 nM in data set [2] (setting [6]) and 56.2 nM in data set [2] (setting [7]). In data set [1], the “Selectivity hMOR/hKOR” value is listed as 3.

Turning to `Cc1cc(C2CCCN2Cc2ccc(Oc3ccc(C(N)=O)cc3F)cc2)nn1C` (centres unmarked) [Example 44], the “selectivity for KOR over MOR, in words” value in data set [1] was “unacceptably lower levels of selectivity (MOR/KOR)”. Further, the Ki came to 14.5 nM in data set [1] (setting [4]), 14.5 nM in data set [1] (setting [5]), 127 nM in data set [2] (setting [6]) and 127 nM in data set [2] (setting [7]). Besides, in data set [1], the “Selectivity hMOR/hKOR” value is recorded as 9.

As for `COc1nn(C)cc1C1CC(F)CN1Cc1ccc(Oc2ccc(C(N)=O)cc2)cc1` (stereo not drawn) [isomer of Example 24], the Ki in data set [1] (radioligand binding, [3H]diprenorphine, read-out: hKOR Ki) worked out at 36.3 nM; in data set [2] (radioligand binding, [3H]diprenorphine, read-out: hMOR Ki), 1210 nM.

The term Ki denotes a measure of affinity in units of concentration, obtained from inhibition or displacement.
